pIC50: −log10 of the molar value. Like-named read-outs stand apart in the source and are kept apart here.

Consider three compounds from paper PMC9862037, “Interactions of Mycotoxin Alternariol with Cytochrome P450 Enzymes and OATP Transporters” (Metabolites, 2022).

The test system of one data set is CYP2D6. The following applies: read-out: IC50, CYP2D6-mediated dextromethorphan O-demethylation; cited from earlier work.
A further data set deals with CYP2C9. The following applies: read-out: IC50, CYP2C9-catalyzed tolbutamide hydroxylation; cited from earlier work.
The test system of a further data set is CYP3A4. The note with it: read-out: IC50, CYP3A4-catalyzed midazolam hydroxylation, cited from earlier work.
In a further data set the target is OATP1B1 (Homo sapiens, UniProt Q9Y6L6). In kind it is cell-based. The arrangement: expressed in transfected cells. The method, then: The assays were performed as described recently. Cells were seeded on 96-well plates one day prior to the measurement. After washing three times with PBS at room temperature, cells were incubated for 15 min with 8-acetoxy-1,3,6-trisulfopyrene (Ace, 5 µM). After this “preloading” stage, the supernatant was removed, and the cells were incubated with the same amount of the probe (Counterflow assay) or without the probe in buffer pH 5.5 (Efflux assay) in the absence and the presence of AOH for further 20 min. Fixed concentrations of AOH were selected based on the IC50 values determined in the transport inhibition assay. […]. Cells were washed three times with ice-cold PBS, then NaOH solution (0.1 N, 200 µL/well) was added. After 20 min, fluorescence was measured with an Enspire plate reader in Ex/Em wavelengths 460/510 nm. Bottom reading was applied with two horizontal (X) and two vertical (Y) points, measurement height was 3 mm with 200 flashes. Fluorescence was compared to the preloaded control incubated with Ace alone, considered as 100%.
Chain of OATP1B1 (Q9Y6L6 whole entry): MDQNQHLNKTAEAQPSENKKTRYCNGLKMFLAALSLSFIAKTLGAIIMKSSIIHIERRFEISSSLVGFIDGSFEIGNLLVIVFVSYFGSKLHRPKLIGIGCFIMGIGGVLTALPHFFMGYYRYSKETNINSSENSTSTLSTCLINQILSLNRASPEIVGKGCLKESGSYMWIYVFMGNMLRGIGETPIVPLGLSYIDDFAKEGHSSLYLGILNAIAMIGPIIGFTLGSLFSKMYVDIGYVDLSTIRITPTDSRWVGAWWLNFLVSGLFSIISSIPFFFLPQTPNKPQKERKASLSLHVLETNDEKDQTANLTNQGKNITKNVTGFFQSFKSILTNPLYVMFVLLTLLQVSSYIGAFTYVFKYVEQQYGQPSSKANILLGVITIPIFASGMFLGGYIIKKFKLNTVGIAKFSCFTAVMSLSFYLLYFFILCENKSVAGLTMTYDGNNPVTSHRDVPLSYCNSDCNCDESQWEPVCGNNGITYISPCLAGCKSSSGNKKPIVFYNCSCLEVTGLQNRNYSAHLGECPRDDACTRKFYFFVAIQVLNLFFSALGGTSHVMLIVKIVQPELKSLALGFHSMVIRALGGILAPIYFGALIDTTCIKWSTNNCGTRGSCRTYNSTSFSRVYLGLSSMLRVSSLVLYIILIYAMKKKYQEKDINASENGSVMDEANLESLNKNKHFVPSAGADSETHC

Usually pIC50 stands for the IC50 on a negative log10 scale, so that one unit is a factor of ten. Turning to `C[C@H]1CCCC(=O)CCC/C=C/c2cc(O)cc(O)c2C(=O)O1` [Zearalenone], the negative-log IC50 (pIC50) was 4.26 with CYP2D6, 6.27 with CYP2C9 and 5.96 with CYP3A4 (in vitro).
Take `CC(=O)OC[C@]12C[C@H](OC(=O)CC(C)C)C(C)=C[C@H]1O[C@@H]1[C@H](O)[C@@H](OC(C)=O)[C@@]2(C)[C@]12CO2` [T-2 toxin]: in the data set on CYP3A4, the pIC50 is 4.57.
Regarding `C=O` [formaldehyde], the “fluorescence signal in the CCF” value on OATP1B1 is listed as “no change in the fluorescence”. The “effect on efflux of the probe” value on OATP1B1 (pH 5.5) is “blocks the efflux”.
